Results from article PMC11984407, “A natural small molecule isoginkgetin alleviates hypercholesterolemia and atherosclerosis by targeting ACLY” (Theranostics, 2025).

Key:
[1] = system: high and very high cardiovascular risk patients intolerant to statins; design: method as in PMID 36876740; conditions: statin-intolerant patients, LDL-C ≥100 mg/dL; cited from earlier work
rhesus monkeys = system: rhesus monkeys; design: method as in PMID 36873173; conditions: two weeks; cited from earlier work
[2] = Copper-induced LDL oxidation, agarose gel electrophoresis; conditions: varying concentrations, copper 5 μM
Experimental: Prior to oxidation, EDTA was removed from LDL solutions (YB-001; Yiyuan Biotechnologies, Guangzhou, China). Subsequently, LDL solutions at a concentration of 0.2 mg/mL were incubated with varying concentrations of ISOGK in PBS for one h at 37 °C. The oxidation process was initiated by combining both native LDL and LDL pretreated with ISOGK with copper sulfate (99.0% purity; Jinshanting New Chemical Reagent Factory, Shanghai, China) to achieve a final copper concentration of 5 μM in PBS. This mixture was then incubated at 37 °C. Agarose gel electrophoresis was performed utilizing 0.5% agarose gels prepared in a sodium barbital buffer, following the stipulated electrophoretic methodology. The procedure was carried out in a 0.075 M sodium barbital buffer at a constant voltage of 55 V for a duration of one h. The relative electrophoretic mobility (REM) was determined by calculating the ratio of the migration distance of oxidized LDL to that of native LDL.

## CC(C)(CCCCCC(O)CCCCCC(C)(C)C(=O)O)C(=O)O [Bempedoic acid, bempedoic acid]
[1]
  primary composite endpoint vs placebo: slight reduction in the primary composite endpoint

## CC(C)c1c(C(=O)Nc2ccccc2)c(-c2ccccc2)c(-c2ccc(F)cc2)n1CC[C@@H](O)C[C@@H](O)CC(=O)O [atorvastatin]
Rhesus monkeys
  LDL-C reduction from the baseline: 19.4%

## Vitamin E [reference compound]
[2]
  antioxidant activity against copper-induced LDL oxidation (REM): retards LDL
